# According to ChEMBL document CHEMBL1201862, “PubChem BioAssay data set” (2004):
#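 Where inhibition never reached the appropriate level, the endpoint shown equals the highest concentration tested. Otherwise, values were interpolated linearly from a five-concentration, 48-hour dose response in 96-well plates. Abbreviation: GI50, concentration required for 50% inhibition of growth.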 Calls of active or inactive are those of the source. Rule as the data show it: active = GI50 up to about 1.1 µM and inactive = higher.
# What was measured:
# Experiment in all cases: NCI tumour cell line growth inhibition, 48 h
# [1] = test system: 786-0
# [2] = test system: A498
# [3] = test system: A549
# [4] = test system: ACHN
# [5] = test system: BT-549
# [6] = test system: CAKI-1
# [7] = test system: CCRF-CEM
# [8] = test system: COLO 205
# [9] = test system: DU-145
# [10] = test system: EKVX
# [11] = test system: HCC 2998
# [12] = test system: HCT-116
# [13] = test system: HCT-15
# [14] = test system: HL-60
# [15] = test system: HOP-62
# [16] = test system: HOP-92
# [17] = test system: HT-29
# [18] = test system: Hs-578T
# [19] = test system: IGROV-1
# [20] = test system: K562
# [21] = test system: KM12
# [22] = test system: LOX IMVI
# [23] = test system: M14
# [24] = test system: MCF7
# [25] = test system: MDA-MB-231
# [26] = test system: MDA-MB-435
# [27] = test system: MDA-N
# [28] = test system: MOLT-4
# [29] = test system: Malme-3M
# [30] = test system: NCI-H226
# [31] = test system: NCI-H23
# [32] = test system: NCI-H460
# [33] = test system: NCI-H522
# [34] = test system: NCI/ADR-RES
# [35] = test system: OVCAR-3
# [36] = test system: OVCAR-4
# [37] = test system: OVCAR-5
# [38] = test system: OVCAR-8
# [39] = test system: PC-3
# [40] = test system: RPMI-8226
# [41] = test system: RXF 393
# [42] = test system: SF-268
# [43] = test system: SF-295
# [44] = test system: SF-539
# [45] = test system: SK-MEL-28
# [46] = test system: SK-MEL-5
# [47] = test system: SK-OV-3
# [48] = test system: SN12C
# [49] = test system: SNB-19
# [50] = test system: SNB-75
# [51] = test system: SR
# [52] = test system: SW-620
# [53] = test system: T47D
# [54] = test system: TK-10
# [55] = test system: U-251
# [56] = test system: UACC-257
# [57] = test system: UACC-62
# [58] = test system: UO-31
# [59] = test system: SK-MEL-2
smiles,measurement,setting,value
O=C(Nc1ccc(Cl)cc1)c1cc(S(=O)(=O)Nc2n[nH]c(Nc3ccc4ccccc4c3)n2)c(SSc2cc(Cl)c(C(=O)Nc3ccc(Cl)cc3)cc2S(=O)(=O)Nc2n[nH]c(Nc3ccc4ccccc4c3)n2)cc1Cl,GI50,[1],31.2 µM (inactive)
same,GI50,[2],23.6 µM (inactive)
same,GI50,[3],41.7 µM (inactive)
same,GI50,[4],21.6 µM (inactive)
same,GI50,[5],24.4 µM (inactive)
same,GI50,[6],19.1 µM (inactive)
same,GI50,[7],20.5 µM (inactive)
same,GI50,[8],18.4 µM (inactive)
same,GI50,[9],24.4 µM (inactive)
same,GI50,[10],42.9 µM (inactive)
same,GI50,[11],17.9 µM (inactive)
same,GI50,[12],18.6 µM (inactive)
same,GI50,[13],21.7 µM
same,GI50,[14],25.1 µM (inactive)
same,GI50,[15],27.7 µM (inactive)
same,GI50,[16],28.2 µM (inactive)
same,GI50,[17],20.6 µM (inactive)
same,GI50,[18],31.8 µM (inactive)
same,GI50,[19],21.7 µM (inactive)
same,GI50,[20],20.5 µM (inactive)
same,GI50,[21],20 µM (inactive)
same,GI50,[22],17.5 µM (inactive)
same,GI50,[23],24.2 µM (inactive)
same,GI50,[24],25.8 µM (inactive)
same,GI50,[25],18.6 µM (inactive)
same,GI50,[26],30.3 µM (inactive)
same,GI50,[27],32.4 µM (inactive)
same,GI50,[28],19.1 µM (inactive)
same,GI50,[29],21.6 µM (inactive)
same,GI50,[30],21.7 µM (inactive)
same,GI50,[31],24.5 µM (inactive)
same,GI50,[32],26.7 µM (inactive)
same,GI50,[33],22.6 µM (inactive)
same,GI50,[34],30.8 µM (inactive)
same,GI50,[35],26.2 µM (inactive)
same,GI50,[36],28 µM (inactive)
same,GI50,[37],20.5 µM (inactive)
same,GI50,[38],27 µM (inactive)
same,GI50,[39],24.4 µM (inactive)
same,GI50,[40],22 µM (inactive)
same,GI50,[41],32.5 µM (inactive)
same,GI50,[42],41.4 µM (inactive)
same,GI50,[43],20.5 µM (inactive)
same,GI50,[44],23.6 µM (inactive)
same,GI50,[45],21.8 µM (inactive)
same,GI50,[46],21.3 µM (inactive)
same,GI50,[47],33.5 µM (inactive)
same,GI50,[48],22.5 µM (inactive)
same,GI50,[49],21.3 µM (inactive)
same,GI50,[50],23 µM (inactive)
same,GI50,[51],23.7 µM (inactive)
same,GI50,[52],21.3 µM (inactive)
same,GI50,[53],3.2 µM (inactive)
same,GI50,[54],27.3 µM (inactive)
same,GI50,[55],23.7 µM (inactive)
same,GI50,[56],33.1 µM (inactive)
same,GI50,[57],22.9 µM (inactive)
same,GI50,[58],24.2 µM (inactive)
CCCCOP(C)(=O)C(NC(=O)OCC)(C(F)(F)F)C(F)(F)F (configuration not stated),GI50,[2],> 100 µM (inactive)
same,GI50,[3],> 100 µM (inactive)
same,GI50,[4],> 100 µM (inactive)
same,GI50,[5],> 100 µM (inactive)
same,GI50,[6],> 100 µM (inactive)
same,GI50,[7],> 100 µM (inactive)
same,GI50,[8],> 100 µM (inactive)
same,GI50,[9],> 100 µM (inactive)
same,GI50,[10],> 100 µM (inactive)
same,GI50,[11],> 100 µM (inactive)
same,GI50,[12],> 100 µM (inactive)
same,GI50,[13],> 100 µM
same,GI50,[14],> 100 µM (inactive)
same,GI50,[15],> 100 µM (inactive)
same,GI50,[16],> 100 µM (inactive)
same,GI50,[17],> 100 µM (inactive)
same,GI50,[18],> 100 µM (inactive)
same,GI50,[19],> 100 µM (inactive)
same,GI50,[20],> 100 µM (inactive)
same,GI50,[21],> 100 µM (inactive)
same,GI50,[22],> 100 µM (inactive)
same,GI50,[23],> 100 µM (inactive)
same,GI50,[24],> 100 µM (inactive)
same,GI50,[25],> 100 µM (inactive)
same,GI50,[26],> 100 µM (inactive)
same,GI50,[27],> 100 µM (inactive)
same,GI50,[28],> 100 µM (inactive)
same,GI50,[29],> 100 µM (inactive)
same,GI50,[30],> 100 µM (inactive)
same,GI50,[31],> 100 µM (inactive)
same,GI50,[32],> 100 µM (inactive)
same,GI50,[33],65.8 µM (inactive)
same,GI50,[34],> 100 µM (inactive)
same,GI50,[35],> 100 µM (inactive)
same,GI50,[36],> 100 µM (inactive)
same,GI50,[37],> 100 µM (inactive)
same,GI50,[38],> 100 µM (inactive)
same,GI50,[39],> 100 µM (inactive)
same,GI50,[40],> 100 µM (inactive)
same,GI50,[41],> 100 µM (inactive)
same,GI50,[42],> 100 µM (inactive)
same,GI50,[43],> 100 µM (inactive)
same,GI50,[44],> 100 µM (inactive)
same,GI50,[45],> 100 µM (inactive)
same,GI50,[59],> 100 µM (inactive)
same,GI50,[46],> 100 µM (inactive)
same,GI50,[47],> 100 µM (inactive)
same,GI50,[48],> 100 µM (inactive)
same,GI50,[49],> 100 µM (inactive)
same,GI50,[50],> 100 µM (inactive)
same,GI50,[51],> 100 µM (inactive)
same,GI50,[52],> 100 µM (inactive)
same,GI50,[53],> 100 µM (inactive)
same,GI50,[54],> 100 µM (inactive)
same,GI50,[55],> 100 µM (inactive)
same,GI50,[56],> 100 µM (inactive)
same,GI50,[57],> 100 µM (inactive)
same,GI50,[58],> 100 µM (inactive)
COc1ccc(C2CCc3nc4nc(N)nc(N)c4cc3C2)cc1 (configuration not stated),GI50,[1],3.13 µM (inactive)
same,GI50,[2],22.2 µM (inactive)
same,GI50,[3],39.3 µM (inactive)
same,GI50,[4],6.64 µM (inactive)
same,GI50,[5],25.5 µM (inactive)
same,GI50,[6],54.1 µM (inactive)
same,GI50,[8],40.3 µM (inactive)
same,GI50,[9],39.7 µM (inactive)
same,GI50,[10],41.2 µM (inactive)
same,GI50,[11],31.8 µM (inactive)
same,GI50,[12],26 µM (inactive)
same,GI50,[13],58.9 µM
same,GI50,[14],54 µM (inactive)
same,GI50,[15],12.1 µM (inactive)
same,GI50,[16],1.2 µM (inactive)
same,GI50,[17],29.2 µM (inactive)
same,GI50,[18],15.6 µM (inactive)
same,GI50,[19],9.68 µM (inactive)
same,GI50,[20],16.4 µM (inactive)
same,GI50,[21],30.8 µM (inactive)
same,GI50,[22],12.1 µM (inactive)
same,GI50,[23],86.9 µM (inactive)
same,GI50,[24],15.2 µM (inactive)
same,GI50,[25],14.8 µM (inactive)
same,GI50,[26],27.4 µM (inactive)
same,GI50,[27],38.3 µM (inactive)
same,GI50,[28],22.1 µM (inactive)
same,GI50,[29],24.5 µM (inactive)
same,GI50,[30],49.4 µM (inactive)
same,GI50,[32],40.6 µM (inactive)
same,GI50,[33],25.4 µM (inactive)
same,GI50,[34],39.2 µM (inactive)
same,GI50,[35],17.3 µM (inactive)
same,GI50,[36],22.8 µM (inactive)
same,GI50,[37],> 100 µM (inactive)
same,GI50,[38],10.2 µM (inactive)
same,GI50,[39],85.1 µM (inactive)
same,GI50,[40],32.6 µM (inactive)
same,GI50,[41],16.3 µM (inactive)
same,GI50,[42],15.8 µM (inactive)
same,GI50,[43],16.8 µM (inactive)
same,GI50,[44],12.4 µM (inactive)
same,GI50,[45],20.8 µM (inactive)
same,GI50,[59],18.9 µM (inactive)
same,GI50,[46],62.5 µM (inactive)
same,GI50,[47],10.1 µM (inactive)
same,GI50,[48],6.7 µM (inactive)
same,GI50,[49],6.65 µM (inactive)
same,GI50,[50],1.67 µM (inactive)
same,GI50,[51],24.3 µM (inactive)
same,GI50,[52],36.6 µM (inactive)
same,GI50,[53],21 µM (inactive)
same,GI50,[54],8.34 µM (inactive)
same,GI50,[55],9.64 µM (inactive)
same,GI50,[56],> 100 µM (inactive)
same,GI50,[57],31.5 µM (inactive)
